These results are taken from article PMC3406249 (Hepatology (Baltimore, Md.), 2012).

The subject of one data set is HCVpp (H77). The settings on record: 50% cell culture inhibitory concentration, HCVpp entry; mean ± SD.
For data set [1] the following is noted: MTT assay; estimated.
A further data set concerns JFH-1 HCVcc. As to conditions: 12 h.

No end group written: not given here.

Turning to GAIVSTALPQWRIYSYAG [CL58.6], 23.8 ± 2.1 µM corresponded to half-maximal inhibition in the data set on HCVpp (H77) (IC50). With MANAGLQLLGFILAFLGW [CL58], in data set [1], the “50% cytotoxic concentration relative to IC50” value was approximately 100 fold. The sequence further returned an IC50 in the data set on JFH-1 HCVcc of 2 µM.

The term IC50 denotes the concentration that gives 50% inhibition. Higher therefore signals lower potency.
